Results: ChEMBL document CHEMBL3734680, “Synthesis and relationship of stability and biological activity of new DSS and TMP conjugates” (Medchemcomm, 2015)
Calls of active or inactive are those of the source. The rule behind the calls is not given here.

What was measured:
carboxyesterase = test: Half life of compound assessed as carboxyesterase (unknown origin)-mediated drug degradation at 0.655 x 10^3 uM by HPLC analysis; format: ADME; settings: human
H9c2 [1] = test: Cardioprotective activity against t-BHP-induced injury in rat H9c2 cells preincubated for 1 hr followed by t-BHP challenge for 12 hrs by MTT assay; format: functional, cell-based
H9c2 [2] = test: Induction of mitochondrial biogenesis in rat H9c2 cells assessed as upregulation of PGC-1beta mRNA expression at 30 uM after 24 hrs by RT-PCR analysis relative to control; format: functional, cell-based
H9c2 [3] = test: Cardioprotective activity against doxorubicin-induced injury in rat H9c2 cells assessed as inhibition of LDH leakage preincubated for 1 hr followed by doxorubicin challenge for 24 hrs; format: functional, cell-based
H9c2 [4] = test: Cardioprotective activity against doxorubicin-induced injury in rat H9c2 cells preincubated for 1 hr followed by doxorubicin challenge for 24 hrs by MTT assay; format: functional, cell-based
H9c2 [5] = test: Induction of mitochondrial biogenesis in rat H9c2 cells assessed as mitochondrial DNA replication after 24 hrs by Mitotracker/DAPI/FITC-staining based immunofluorescence analysis relative to control; format: functional, cell-based
H9c2 [6] = test: Induction of mitochondrial biogenesis in rat H9c2 cells assessed as upregulation of Tfam mRNA expression at 30 uM after 24 hrs by RT-PCR analysis relative to control; format: functional, cell-based

half-life (carboxyesterase) [min] | Structure (SMILES) | Activity (H9c2 [1]) | Activity (H9c2 [2]) | Activity (H9c2 [3]) | Activity (H9c2 [4]) | Activity (H9c2 [5]) | Activity (H9c2 [6])
11.3 | C=CCC(OC(=O)[C@@H](Cc1ccc(OC(C)=O)c(OC(C)=O)c1)OC(C)=O)c1nc(C)c(C)nc1C (stereo partly drawn) | Active | – | – | – | – | –
10.6 | CC(=O)Oc1ccc(C[C@@H](OC(C)=O)C(=O)OC(C)c2nc(C)c(C)nc2C)cc1OC(C)=O (stereo partly drawn) | Active | – | – | – | – | –
20.5 | C=CCC(CC=C)(OC(=O)[C@@H](Cc1ccc(OC(C)=O)c(OC(C)=O)c1)OC(C)=O)c1nc(C)c(C)nc1C | Active | Active | Dose-dependent effect | Dose-dependent effect | Active | Active
10.3 | CC(=O)Oc1ccc(CC(OC(C)=O)C(=O)OCc2nc(C)c(C)nc2C)cc1OC(C)=O (stereo not drawn) | Active | – | – | – | – | –
